Results: patent publication US8158792B2, “Spiropiperidines for use as tryptase inhibitors” (Janssen Pharmaceutica N.V., priority 2007, dated 2012)

These compounds were tested against human lung tryptase (assay: β-Tryptase In-Vitro Enzyme Assay). Conditions: human lung tryptase 1 nM, substrate H-D-HHT-Ala-Arg-pNa 500 μM, pH 7.4, room temperature.
Assay type: biochemical
Description: The β-tryptase assay was conducted with human lung tryptase (Cortex Biochem #CP3033) in an aqueous buffer (10 mM Tris, 10 mM Hepes, 150 mM NaCl, 0.1% PEG 8000, pH 7.4) using the chromogenic substrate H-D-HHT-Ala-Arg-pNa. […] Percent inhibition was calculated by comparing the initial reaction velocity of samples without inhibitor to those with inhibitor. The initial reaction velocities were analyzed using Microsoft Excel.

Row | Compound | IC50 [µM]
1 | NCc1ccc2c(c1)C1(CCN(C(=O)C=C3c4ccccc4-c4ccccc43)CC1)CO2 [Cpd 189, 1-(1-oxo-2-fluoren-9-ylidene-ethyl)-5′-aminomethyl-spiro[piperidine-4,3′-(2H)-benzo[b]furan]] | 0.38
2 | NCc1ccc2c(c1)C1(CCN(C(=O)c3ccc4ncsc4c3)CC1)CO2 [Cpd 16, 1-benzothiazol-6-ylcarbonyl-5′-aminomethyl-spiro[piperidine-4,3′-(2H)-benzo[b]furan]] | 0.43
3 | Cc1nn(-c2ccc(C(=O)N3CCC4(CC3)COc3ccc(CN)cc34)o2)c(C)c1Cl [Cpd 221, 1-[5-(3,5-dimethyl-4-chloro-pyrazol-1-yl)-furan-2-yl]carbonyl-5′-aminomethyl-spiro[piperidine-4,3′-(2H)-benzo[b]furan]] | 0.55
4 | Cc1nc(-c2ccc(C(=O)N3CCC4(CC3)COc3ccc(CN)cc34)s2)cs1 [Cpd 206, 1-[5-(2-methyl-thiazol-4-yl)-thien-2-yl]carbonyl-5′-aminomethyl-spiro[piperidine-4,3′-(2H)-benzo[b]furan]] | 0.26
5 | COc1cccc(CCC(=O)N2CCC3(CC2)COc2ccc(CN)cc23)c1 [Cpd 101, 1-(3-methoxy-phenethyl)carbonyl-5′-aminomethyl-spiro[piperidine-4,3′-(2H)-benzo[b]furan]] | 2.4
6 | CC(C)(C)c1ccc(C#Cc2ccc(C(=O)N3CCC4(CC3)COc3ccc(CN)cc34)o2)cc1 [Cpd 282, 1-[5-(4-tert-butyl-phenylethynyl)-furan-2-yl]carbonyl-5′-aminomethyl-spiro[piperidine-4,3′-(2H)-benzo[b]furan]] | 0.7
7 | CCOCCOc1cccc(/C=C/C(=O)N2CCC3(CC2)COc2ccc(CN)cc23)c1 [Cpd 302, (E)-1-[3-(2-ethoxy-ethoxy)-phenylethenyl]carbonyl-5′-aminomethyl-spiro[piperidine-4,3′-(2H)-benzo[b]furan]] | 0.75
8 | NCc1ccc2c(c1)C1(CCN(C(=O)c3ccc(CN4CCOCC4)o3)CC1)CO2 [Cpd 216, 1-(5-morpholin-4-ylmethyl-furan-2-yl)carbonyl-5′-aminomethyl-spiro[piperidine-4,3′-(2H)-benzo[b]furan]] | 1.7
9 | O=C(NCc1ccc2c(c1)C1(CCNCC1)CO2)c1ccc(Cl)c(Cl)c1 [Cpd 2, 5′-(3,4-dichlorophenylcarbonylaminomethyl)-spiro[piperidine-4,3′-(2H)-benzo[b]furan]] | 1.4
10 | NCc1ccc2c(c1)C1(CCN(C(=O)c3ccc(-c4cccc(C(F)(F)F)c4)cc3)CC1)CO2 [Cpd 15, 1-[4-(3-trifluoromethyl-phenyl)-phenyl]carbonyl-5′-aminomethyl-spiro[piperidine-4,3′-(2H)-benzo[b]furan]] | 5.5
11 | COc1ccc(CC(=O)N2CCC3(CC2)COc2ccc(CN)cc23)cc1 [Cpd 94, 1-(4-methoxy-benzyl)carbonyl-5′-aminomethyl-spiro[piperidine-4,3′-(2H)-benzo[b]furan]] | 0.24
12 | CS(=O)(=O)c1cccc(C(=O)N2CCC3(CC2)COc2ccc(CN)cc23)c1 [Cpd 72, 1-(3-methylsulfonyl-phenyl)carbonyl-5′-aminomethyl-spiro[piperidine-4,3′-(2H)-benzo[b]furan]] | 0.52
13 | Cc1nc(-c2cccnc2)sc1C(=O)N1CCC2(CC1)COc1ccc(CN)cc12 [Cpd 124, 1-(2-pyridin-3-yl-4-methyl-thiazol-5-yl)carbonyl-5′-aminomethyl-spiro[piperidine-4,3′-(2H)-benzo[b]furan]] | 1.1
14 | NCc1ccc2c(c1)C1(CCN(C(=O)c3ccc(CSc4ccc(C(F)(F)F)cn4)o3)CC1)CO2 [Cpd 151, 1-[5-(5-trifluoromethyl-pyridin-2-ylthiomethyl)-furan-2-yl]carbonyl-5′-aminomethyl-spiro[piperidine-4,3′-(2H)-benzo[b]furan]] | 0.18
15 | NCc1ccc2c(c1)C1(CCN(C(=O)Cc3ccc4ccccc4c3)CC1)CO2 [Cpd 84, 1-naphthalen-2-ylmethylcarbonyl-5′-aminomethyl-spiro[piperidine-4,3′-(2H)-benzo[b]furan]] | 1.4
16 | NCc1ccc2c(c1)C1(CCN(C(=O)c3ccc4c(c3)C(=O)c3ccccc3-4)CC1)CO2 [Cpd 8, 1-(9-oxo-fluoren-2-yl)carbonyl-5′-aminomethyl-spiro[piperidine-4,3′-(2H)-benzo[b]furan]] | 3.4
17 | NCc1ccc2c(c1)C1(CCN(C(=O)c3cc(-c4ccccc4)cs3)CC1)CO2 [Cpd 288, 1-(4-phenyl-thien-2-yl)carbonyl-5′-aminomethyl-spiro[piperidine-4,3′-(2H)-benzo[b]furan]] | 0.28
18 | NCc1ccc2c(c1)C1(CCN(C(=O)/C=C/c3ccccc3F)CC1)CO2 [Cpd 309, (E)-1-(2-fluoro-phenylethenyl)carbonyl-5′-aminomethyl-spiro[piperidine-4,3′-(2H)-benzo[b]furan]] | 0.1
19 | NCc1ccc2c(c1)C1(CCN(C(=O)c3ccc(Cc4ccccc4)cc3)CC1)CO2 [Cpd 75, 1-(4-benzyl-phenyl)carbonyl-5′-aminomethyl-spiro[piperidine-4,3′-(2H)-benzo[b]furan]] | 0.47
20 | COc1ccc(C(=O)N2CCC3(CC2)COc2ccc(CN)cc23)cc1 [Cpd 54, 1-(4-methoxy-phenyl)carbonyl-5′-aminomethyl-spiro[piperidine-4,3′-(2H)-benzo[b]furan]] | 0.75
21 | NCc1ccc2c(c1)C1(CCN(C(=O)c3cn(Cc4ccccc4)c4ccccc34)CC1)CO2 [Cpd 239, 1-(1-benzyl-indol-3-yl)carbonyl-5′-aminomethyl-spiro[piperidine-4,3′-(2H)-benzo[b]furan]] | 0.27
22 | NCc1ccc2c(c1)C1(CCN(C(=O)/C=C/c3ccccc3Br)CC1)CO2 [Cpd 199, (E)-1-(2-bromo-phenylethenyl)carbonyl-5′-aminomethyl-spiro[piperidine-4,3′-(2H)-benzo[b]furan]] | 0.18
23 | NCc1ccc2c(c1)C1(CCN(C(=O)c3ccc(C#Cc4ccccc4)o3)CC1)CN2CCC(=O)O [Cpd 322, 1-(5-phenylethynyl-furan-2-yl)carbonyl-1′-(2-carboxy-ethyl)-5′-aminomethyl-spiro[piperidine-4,3′-(2H)-indole]] | 0.45

The next compounds have a lower IC50 than those just listed; values first:

Row | IC50 [µM] | Compound
24 | 0.04 | CCCOc1sc(C(=O)N2CCC3(CC2)CN(S(=O)(=O)O)c2ccc(CN)cc23)c(C)c1Br [Cpd 346, 1-(3-methyl-4-bromo-5-propoxy-thien-2-yl)carbonyl-1′-hydroxysulfonyl-5′-aminomethyl-spiro[piperidine-4,3′-(2H)-indole]]
25 | 0.0031 | NCc1ccc2c(c1)C1(CC2)CCN(C(=O)c2ccc(C#Cc3ccccc3)o2)CC1 [Cpd 318, 1-(5-phenylethynyl-furan-2-yl)carbonyl-5′-aminomethyl-spiro[piperidine-4,3′-indane]]
26 | 0.022 | COc1ccc(C(=O)N2CCC3(CC2)COc2ccc(CN)cc23)cc1I [Cpd 52, 1-(3-iodo-4-methoxy-phenyl)carbonyl-5′-aminomethyl-spiro[piperidine-4,3′-(2H)-benzo[b]furan]]
27 | 0.041 | NCc1ccc2c(c1)C1(CCN(C(=O)c3cccc(SC(F)(F)F)c3)CC1)CO2 [Cpd 63, 1-(3-trifluoromethylthio-phenyl)carbonyl-5′-aminomethyl-spiro[piperidine-4,3′-(2H)-benzo[b]furan]]
28 | 0.0012 | Cc1ccccc1C#Cc1ccc(C(=O)N2CCC3(CC2)COc2ccc(CN)cc23)o1 [Cpd 153, 1-[5-(2-methyl-phenylethynyl)-furan-2-yl]carbonyl-5′-aminomethyl-spiro[piperidine-4,3′-(2H)-benzo[b]furan]]
29 | 0.0052 | NCc1ccc2c(c1)C1(CCN(C(=O)c3ccc(C#Cc4ccccc4)o3)CC1)CN2S(N)(=O)=O [Cpd 342, 1-(5-phenylethynyl-furan-2-yl)carbonyl-1′-aminosulfonyl-5′-aminomethyl-spiro[piperidine-4,3′-(2H)-indole]]
30 | 0.0053 | CCCCSc1sc(C(=O)N2CCC3(CC2)COc2ccc(CN)cc23)c2c1C(=O)CCC2 [Cpd 229, 1-(3-butylthio-4-oxo-5,6,7-trihydro-4H-benzo[c]thien-1-yl)carbonyl-5′-aminomethyl-spiro[piperidine-4,3′-(2H)-benzo[b]furan]]
31 | 0.023 | COC(=O)CN1CC2(CCN(C(=O)c3ccc(C#Cc4ccccc4)o3)CC2)c2cc(CN)ccc21 [Cpd 343, 1-(5-phenylethynyl-furan-2-yl)carbonyl-1′-[(methoxycarbonyl)methyl]-5′-aminomethyl-spiro[piperidine-4,3′-(2H)-indole]]
32 | 0.0065 | NCc1ccc2c(c1)C1(CCN(C(=O)c3sc(SCc4ccccc4)c4c3CCCC4=O)CC1)CO2 [Cpd 214, 1-(3-benzylthio-4-oxo-5,6,7-trihydro-4H-benzo[c]thien-1-yl)carbonyl-5′-aminomethyl-spiro[piperidine-4,3′-(2H)-benzo[b]furan]]
33 | 0.0083 | Cc1ccc(C#Cc2ccc(C(=O)N3CCC4(CC3)COc3ccc(CN)cc34)o2)cc1 [Cpd 170, 1-[5-(4-methyl-phenylethynyl)-furan-2-yl]carbonyl-5′-aminomethyl-spiro[piperidine-4,3′-(2H)-benzo[b]furan]]
34 | 0.068 | NCc1ccc2c(c1)C1(CCN(C(=O)c3cc(Br)c(Br)s3)CC1)CN2S(=O)(=O)O [Cpd 351, 1-(4,5-dibromo-thien-2-yl)carbonyl-1′-hydroxysulfonyl-5′-aminomethyl-spiro[piperidine-4,3′-(2H)-indole]]
35 | 0.024 | NCc1ccc2c(c1)C1(CCN(C(=O)/C=C/c3cccc(OCc4ccccc4)c3)CC1)CO2 [Cpd 281, (E)-1-(3-benzyloxy-phenylethenyl)carbonyl-5′-aminomethyl-spiro[piperidine-4,3′-(2H)-benzo[b]furan]]
36 | 0.055 | NCc1ccc2c(c1)C1(CCN(C(=O)c3ccc(F)c(Br)c3)CC1)CO2 [Cpd 31, 1-(3-bromo-4-fluoro-phenyl)carbonyl-5′-aminomethyl-spiro[piperidine-4,3′-(2H)-benzo[b]furan]]
